For data set [1], the system named is splenocytes of PD-1KO EAE mice. Briefly: Ex vivo T cell proliferation to mMOG-35-55, PD-1KO mice. The data set is classed as in vivo, mouse. The conditions noted are these: G-1 treatment, FIG. 6B. The method, then:
Splenocytes and lymph node cells were harvested ex-vivo from G-1 and E2 implanted mice and cultured in a 96-well flat bottom tissue culture plate at 4×10^5 cells/well in stimulation medium in the presence of APC, irradiated (2500 rad) syngenic thymocytes at a ration of 1:10 (T:APCs) wither with or without mMog 35-55 peptide at varying concentrations. The cells were incubated for 3 days at 37° C. in 7% CO2 and pulsed with 0.5 μCi of [^3H] thymidine (Perkin-Elmer, Boston, Mass.) for the final 18 h of incubation. The cells were harvested onto glass fiber filters, and incorporated radioactivity was measured by a liquid scintillation counter. The cpm values (mean±SD) were calculated from triplicate wells. Stimulation index (SI) was calculated by dividing the experimental cpm by the control cpm.
Splenocytes from placebo and G-1 treatment groups were evaluated for T cell proliferation and cytokine secretion in 48 h supernatants.

In a further data set the test system is uteri. Kind of data set: Uterine weight (estrogenic effect). Details: species or system mouse. The conditions noted are these: G-1 treatment in vivo, FIG. 2E. An excerpt:
(§1) Treatment with G-1 in viva lacked the “estrogenic effects” of E2.

For data set [2], the system named is liver, eyes, heart, mammary gland, brain, spleen, kidney, muscle, lung. Kind of data set: H&E organ histology in G-1 treated naive mice. The format is in vivo, mouse. The note with it: 1.8 mg G-1 treated naive mice.
From the text: as §1

Data set [3] relates to PD-L1 and PD-L2 expression. Kind of data set: PD-L1 and PD-L2 expression on APCs and T cells by flow cytometry (Example VIII). The format is in vivo, mouse. The note with it: treated WT EAE mice, FIG. 5C. Background: In flow cytometry, cells or beads pass a laser one at a time.
Data set [4] concerns cytokine secretion by splenocytes of PD-1KO immunized mice. Briefly: Cytokine secretion of mMog-35-55 stimulated splenocytes, Luminex, PD-1KO mice. The format is in vivo, mouse. The note with it: G-1 treated PD-1KO mice. Here is the method:
PD-1KO (Dr. […] One week after implantation experimental autoimmune encephalomyelitis (EAE) was induced. Splenocytes were harvested from […] cell proliferation and cytokine secretion in 48 h supernatants. (*P<0.05, or **P<0.01 compared to placebo). Lymph node and spleen cells were cultured at 4×10^6 cells/well in a 24 well flat-bottom culture plate in stimulation medium (RPMI 1640, 1% sodium pyruvate, 1% L-glutamine, 0.4% 2-β-ME, 10% FBS) with 25 μg/ml mMog-35-55 peptide for 48H. Supernatants were then harvested and stored at -80° C. until tested for cytokines. Culture supernatants were assessed for cytokine levels using a Luminex Bio-Plex mouse cytokine assay kit (BioRad, Hercules, Calif.) following the manufacturer's instructions. The following cytokines were determined in a single assay in three separate experiments: IL-1βIFN-γ, TNF-α, IL-2, IL-4, IL-5. IL-6, IL-12, IL-13, and IL-17. […] This cytokine profile was drastically altered in G-1 treated PD-1Ko mice. The decrease of Il-17 and increase of Il-6, Il-10 and IFN-γ production were abolished, whereas the reduction in IL-2 and Il-4 remained. Thus PD-1 was required for […] downregulation of IL-17 but not Il-2 and Il-4, and upregulation of IL-6, Il10 and IFN-γ.

The subject of data set [5] is experimental autoimmune encephalomyelitis (EAE) in WT C57BL/6 female mice. Kind of data set: EAE clinical scoring, E2 pellets, WT mice (Example II). The format is in vivo, mouse.
Data set [6] can be described thus: Serum E2 level by radioimmunoassay in E2-implanted mice. The data set is classed as in vivo, mouse. The conditions noted are these: mice with 2.5 mg/60 day release E2 pellets; RIA; FIG. 3. Here is the method:
Serum levels of E2 were determined by radioimmunoassay (RIA) after Sephadex LH-20 column chromatography (GE Healthcare Life Sciences, Piscataway, N.J.). Representative animals were bled by cardiac puncture, and the blood was allowed to clot at 4° C. overnight. The samples were centrifuged, and the sera were collected and stored at −80° C. until hormone analysis was performed. All samples were analyzed in a single assay for each hormone.

The subject of data set [7] is PD-1 expression in CD4^+FoxP3^+ or CD4^+FoxP3^− T cells. Kind of data set: PD-1 expression in CD4+FoxP3+/FoxP3- T cells by flow cytometry, E2-treated WT vs knockout mice (Example V). The format is in vivo, mouse. The method, then:
Age matched WT C57BL/6 from the animal service at National Cancer Institute (Frederick, Md.), GPR30KO prepared as in Example 1, or PDD-KO mice (Dr. […] Splenocytes or lymph node cells from GPR30KO mice were obtained at the end of the clinical experiment in FIG. 1A and stained for FoxP3 and PD-1, as well as cellular markers for T cells and antigen presenting cells (APC). For membrane staining, 1 million cells were stained at 4° C. in the dark with appropriate Ab dilutions in staining buffer (PBS containing 0.5% BSA and 0.02% sodium azide), Intracellular staining for FoxP3 was performed following the protocol recommended by eBioscience (San Diego, Calif.). Briefly, 4 million cells were surface stained following standard procedures. After washing, the cells were fixed overnight and washed twice with 0.5 ml of permeabilization buffer. […] Flow cytometry data were collected on LSRII and FACSCalibur flow cytometers (BD Bioscience, Franklin Lakes, N.J.), and analyzed using FlowJo software (Tree Star, Ashland, Oreg.). […] The expression levels of PD-1 were analyzed by gating on CD4^+FoxP3^+ or CD4^+FoxP3^− T cells from WT or GPR30 mice. The bar charts in FIG. 5A show the average mean fluorescence intensity (MFI) of Pd-1 in CD4^+FoxP3^+ or CD4^+FoxP3^− from all mice in each group. […]

[8] abbreviates: WT, 2.5 mg/60 day release E2 pellet, 25 days.

Marks after values point to notes of the source that are not given here.

Turning to `CC(=O)c1ccc2c(c1)C1C=CCC1C(c1cc3c(cc1Br)OCO3)N2` (stereo not shown) [G-1], the “T cell proliferation to mMog-35-55” value in data set [1] was “did not significantly change”. Besides, in the data set on uteri, the weight of uteri result was “did not significantly change”. Further, the “abnormalities by H&E staining in liver, eyes, heart, mammary gland, brain, spleen, kidney, muscle or lung” value in data set [2] is “no abnormalities”. In data set [3], the “PD-L1 expression on B cells and macrophages” value is listed as “upregulated”; the “expression of PD-L2” value is recorded as “essentially no effect”. For the same molecule, in data set [4], the “decrease of Il-17 production” value is “abolished”, the “increase of IFN-γ production” value is recorded as “abolished”, the “increase of Il-6 production” value is “abolished” and the “increase of Il-10 production” value is recorded as “abolished”. In data set [4], the “reduction in IL-2” value is “remained” and the “reduction in Il-4” value is “remained”.

Turning to `C[C@]12CC[C@@H]3c4ccc(O)cc4CC[C@H]3[C@@H]1CC[C@@H]2O` [E2, 17β estradiol], the “clinical EAE (in words)” value in data set [5] (E2-treated WT mice, 2.5 mg/60 day pellet) is recorded as “no sign of the disease”. Besides, in data set [5] (WT, 2.5 mg/60 day release E2 pellet one week before immunization, concluded 25 days after immunization), the Incidence is 0/10. For the same molecule, in data set [5] (setting [8]), the CDI is listed as 0**, the Daily is recorded as 0** and the Mortality is on record as 0/10. Further, the Peak in data set [5] (WT, 2.5 mg/60 day release E2 pellet, 25 days, EAE score scale 0-6) is reported as 0**. Besides, in data set [6], the “serum E2 levels” value fell in the range of 1.5 to 2 ng/mL. For the same molecule, the “PD-1 expression in non-regulatory CD4^+FoxP3^− T cells” value in data set [7] (WT or PD-1KO mice (so in the source)) is on record as “did not induce a significant shift”. The “E2 induced upregulation of PD-1 expression in CD4+FoxP3+ cells” value in data set [7] (splenocytes from PD-1KO mice (so in the source), FIG. 5A) is given as “abolished”. In data set [3], the “PD-L1 expression on B cells and macrophages” value is “upregulated”; the “expression of PD-L2” value is listed as “essentially no effect”.

(Values after patent US20110124614A1, “Methods And Compositions For The Treatment of Autoimmune Disorders” (priority 2008, published 2011).)
